Experimental data as given in publication PMC9366271 (Journal of medicinal chemistry, 2018).
Entries after “also recorded” stand apart in the source; their conditions may differ.

How the values were obtained:
D2R [1] = target: D2R (Homo sapiens, UniProt P14416); experiment: Dynamic mass redistribution; type: cell-based; conditions: 500 nM bivalent compounds or 1 μM spiperone for 30 min, then 100 nM sumanirole
D2R [2] = target: D2R (Ovis aries, UniProt A0ACI6R699); type: binding, sheep

Chain of D2R (Homo sapiens, UniProt P14416) (P14416 whole entry): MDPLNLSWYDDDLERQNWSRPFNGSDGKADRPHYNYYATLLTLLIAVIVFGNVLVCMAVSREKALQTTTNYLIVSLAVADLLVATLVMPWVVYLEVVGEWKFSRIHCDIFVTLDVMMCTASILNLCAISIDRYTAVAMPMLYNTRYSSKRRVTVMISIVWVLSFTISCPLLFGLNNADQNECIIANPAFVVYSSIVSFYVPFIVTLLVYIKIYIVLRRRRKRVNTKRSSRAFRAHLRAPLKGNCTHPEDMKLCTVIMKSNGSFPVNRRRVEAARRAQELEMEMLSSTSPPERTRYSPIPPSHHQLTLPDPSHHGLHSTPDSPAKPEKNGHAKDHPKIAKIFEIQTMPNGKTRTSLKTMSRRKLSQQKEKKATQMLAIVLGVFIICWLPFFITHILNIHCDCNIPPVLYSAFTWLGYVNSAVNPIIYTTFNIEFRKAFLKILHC

magnitude of the signaling by sumanirole in presence of ligand (DMR) (D2R [1]) | decrease of binding by disturber peptide TAT-TM6 (D2R [2]; TAT-TM6 of D2R vs no peptide) | Structure (SMILES) | effect of TAT-TM6 peptides on binding (D2R [2]; TAT-TM6 peptides of D2R and A2AR, native tissue)
significantly decreased | – | COC(=O)CN(CC(=O)NCCCOCCOCCOCCCNC(=O)CCC(=O)Nc1ccc(CCN2CN(c3ccccc3)C3(CCN(CCCC(=O)c4ccc(F)cc4)CC3)C2=O)cc1)CC(=O)NCCCOCCOCCOCCCNC(=O)CCC(=O)Nc1ccc(CCN2CN(c3ccccc3)C3(CCN(CCCC(=O)c4ccc(F)cc4)CC3)C2=O)cc1 [Compound 12, Methyl 24-((4-(2-(8-(4-(4-fluorophenyl)-4-oxobutyl)-4-oxo-1-phenyl-1,3,8-triazaspiro[4.5]decan-3-yl)ethyl)phenyl)amino)-3-(21-((4-(2-(8-(4-(4-fluorophenyl)-4-oxobutyl)-4-oxo-1-phenyl-1,3,8-triazaspiro[4.5]decan-3-yl)ethyl)phenyl)amino)-2,18,21-trioxo-7,10,13-trioxa-3,17-diazahenicosyl)-5,21,24-trioxo-10,13,16-trioxa-3,6,20-triazatetracosanoate] | –
– | – | COC(=O)CN(CC(=O)NCCOCCOCCNC(C)=O)CC(=O)NCCOCCOCCNC(=O)CCC(=O)Nc1ccc(CCN2CN(c3ccccc3)C3(CCN(CCCC(=O)c4ccc(F)cc4)CC3)C2=O)cc1 [Compound 15, Methyl 3-(2,13-dioxo-6,9-dioxa-3,12-diazatetradecyl)-19-((4-(2-(8-(4-(4-fluorophenyl)-4-oxobutyl)-4-oxo-1-phenyl-1,3,8-triazaspiro[4.5]decan-3-yl)ethyl)phenyl)amino)-5,16,19-trioxo-9,12-dioxa-3,6,15-triazanonadecanoate] | had no effect; also recorded: Neither TAT-TM6 peptide of D2R nor A2R influenced the binding
significantly decreased | 52 fold | COC(=O)CN(CC(=O)NCCOCCOCCNC(=O)CCC(=O)Nc1ccc(CCN2CN(c3ccccc3)C3(CCN(CCCC(=O)c4ccc(F)cc4)CC3)C2=O)cc1)CC(=O)NCCOCCOCCNC(=O)CCC(=O)Nc1ccc(CCN2CN(c3ccccc3)C3(CCN(CCCC(=O)c4ccc(F)cc4)CC3)C2=O)cc1 [Compound 13, Methyl 19-((4-(2-(8-(4-(4-fluorophenyl)-4-oxobutyl)-4-oxo-1-phenyl-1,3,8-triazaspiro[4.5]decan-3-yl)ethyl)phenyl)amino)-3-(16-((4-(2-(8-(4-(4-fluorophenyl)-4-oxobutyl)-4-oxo-1-phenyl-1,3,8-triazaspiro[4.5]decan-3-yl)ethyl)phenyl)amino)-2,13,16-trioxo-6,9-dioxa-3,12-diazahexadecyl)-5,16,19-trioxo-9,12-dioxa-3,6,15-triazanonadecanoate] | –

Structure (SMILES) | magnitude of the signaling by sumanirole in presence of ligand (DMR) (D2R [1]) | decrease of binding by disturber peptide TAT-TM6 (D2R [2]; TAT-TM6 of D2R vs no peptide) | effect of TAT-TM6 peptides on binding (D2R [2]; TAT-TM6 peptides of D2R and A2AR, native tissue)
O=C(CCCN1CCC2(CC1)C(=O)NCN2c1ccccc1)c1ccc(F)cc1 [spiperone, reference compound] | significantly decreased | – | –
